Like-named read-outs stand apart in the source and are kept apart here.
How the values were obtained:
[1] = type: in vitro ADME, Mus musculus
[2] = test system: purified porcine esterases; details: ref Roberts et al., 2011a, b; cited from earlier work
[3] = type: in vitro ADME, Chelydra serpentina serpentina; details: snapping turtle S9; 120 min; 1 mg protein
[4] = type: in vitro ADME, Cyprinus carpio; details: S9 of smaller (likely younger, juvenile) carp population; mean ± SD, N = 3
[5] = type: in vitro ADME, Pimephales promelas; details: all three fathead minnow subcellular fractions; significant = three times the background

| Compound | difference in TBB metabolism between age classes ([1]; S9, 4-month-old vs 2-month-old male mice) | metabolism by esterases [2] | metabolism of TBB (loss of parent vs heat-inactivated control) [3] | metabolic rate of TBB [4] [pmoles TBB mg^−1 min^−1] | TBMB metabolite peaks in chromatograms of incubations [5] | TBMB metabolite peaks in chromatograms of incubations ([1]; mouse incubations, significant = three times the background) |
| --- | --- | --- | --- | --- | --- | --- |
| CCCCC(CC)COC(=O)c1cc(Br)c(Br)c(Br)c1Br (stereo not drawn) [TBB, 2-ethylhexyl 2,3,4,5-tetrabromobenzoate] | No difference | rapidly metabolize | not metabolized | 1.30 ± 0.62 | – | – |
| COC(=O)c1cc(Br)c(Br)c(Br)c1Br [TBMB, 2,3,4,5-tetrabromomethylbenzoate] | – | – | – | – | Significant peaks | not significant |

From paper PMC3835519 (Aquatic toxicology (Amsterdam, Netherlands), 2012)
